Test results published in patent US12595275B2, “Fluorine-containing compound and anti-cancer medical use thereof” (ASCENTAWITS PHARMACEUTICALS, LTD., priority 2019, dated 2026).
Like-named read-outs stand apart in the source and are kept apart here.

How the values were obtained:
[1] = tested on: H460 cancer cells; assay: H460 proliferation assay in the presence of the specific AKR1C3 enzyme inhibitor TH-3021; assay type: cell-based, human; conditions: AKR1C3 inhibitor TH-3021 at 3 micromolar, added two hours before compound treatment, read-out: IC50 (nM) obtained when the AKR1C3 inhibitor TH-3021 was added
Method: (§1) Specifically, exponentially growing cells were seeded at a density of 4×10^3 cells per well in a 96 well plate and incubated at 37° C. in 5% CO2, 95% air and 100% relative humidity for 24 hours prior to addition of test compounds. Compounds were solubilized in 100% DMSO at 200 times the desired final test concentration. At the time of drug addition, compounds were further diluted to 4 times the desired final concentration with complete medium. Aliquots of 50 μl of compound at specified concentrations were added to microtiter wells already containing 150 μl of medium, resulting in the final drug concentration reported. After drug addition, the plates were incubated for an additional 2 hours at 37° C., 5% CO2, 95% air, and 100% relative humidity, then the drug was washed off and fresh medium was added and the plates were incubated for addition 70 hrs at 37° C., 5% CO2, 95% air and 100% relative humidity. At the end of this incubation, the viable cells were quantified using the AlamarBlue assay.
Similarly, in order to further verify that the compounds are activated by human AKR1C3 ([…] family 1 member C3), the effect of some of the compounds on the proliferation of H460 cancer cells was tested in the presence of a specific AKR1C3 enzyme inhibitor (at 3 micromolar concentration). The inhibitor-added compound solution was added to the cell culture two hours before the treatment with the compound. The inhibitor used was compound 36, i.e.,
[drawing 17] (TH-3021) in Flanagan et al., Bioorganic and Medicinal Chemistry (2014), pages 962-977.

[2] = tested on: H460 non-small cell lung cancer human tumor cell line; assay: In vitro human tumor cell line cytotoxicity (proliferation) assay, H460; assay type: cell-based; conditions: NCI-H460, H460 cells, 2 hrs compound exposure, wash, additional 70 hrs incubation, AlamarBlue
Method: In vitro human tumor cell line cytotoxicity assays.
In vitro proliferation data on the H460 non-small cell lung cancer human tumor cell line is reported below in the compound table.
as §1

Compound | IC50 [1] | IC50 [2] | IC50 ([1]; Homo sapiens, NCI-H460, 2 h)
CN(C)C(=O)c1ccc(Oc2cc(COc3c(F)cc(COP(=O)(N4CC4)N4CC4)cc3F)ccc2[N+](=O)[O-])cc1 [Compound No. 1] | 460 nM | 1.97 nM | 
CN(C)C(=O)c1ccc(Oc2cc(COc3c(F)c(F)c(COP(=O)(N4CC4)N4CC4)c(F)c3F)ccc2[N+](=O)[O-])cc1 [Compound No. 2] | > 1000 nM | 0.352 nM | 
CN(C)C(=O)c1cccc(Oc2cc(COc3c(F)c(F)c(COP(=O)(N4CC4)N4CC4)c(F)c3F)ccc2[N+](=O)[O-])c1 [Compound No. 3] | > 1000 nM | 0.417 nM | 
O=[N+]([O-])c1ccc(COc2c(F)cc(COP(=O)(N3CC3)N3CC3)cc2F)cc1Oc1ccc(C(F)(F)F)cc1 [Compound No. 4] | > 1000 nM | 9.31 nM | 
O=[N+]([O-])c1ccc(COc2c(F)cc(COP(=O)(N3CC3)N3CC3)cc2F)cc1Oc1ccc(Cl)nc1 [Compound No. 5] | 228 nM | 5.87 nM | 
CN(C)C(=O)c1cccc(Oc2cc(C(OP(=O)(N3CC3)N3CC3)C(F)(F)F)ccc2[N+](=O)[O-])c1 (stereo not shown) [Compound No. 6] | 813 nM | 1.27 nM | 
O=[N+]([O-])c1ccc(C(OP(=O)(N2CC2)N2CC2)C(F)(F)F)cc1Oc1ccc(C(F)(F)F)cc1 (stereo not shown) [Compound No. 7] | > 1000 nM | 25.6 nM | 
O=[N+]([O-])c1ccc(COc2c(F)c(F)c(COP(=O)(N3CC3)N3CC3)c(F)c2F)cc1Oc1ccc(C(F)(F)F)cc1 [Compound No. 8] | > 1000 nM | 0.526 nM | 
O=[N+]([O-])c1ccc(C(OP(=O)(N2CC2)N2CC2)C(F)(F)F)cc1Oc1ccc(-c2ccc(F)cc2)cc1 (stereo not shown) [Compound No. 9] | > 1000 nM | 18.4 nM | 
O=[N+]([O-])c1ccc(C(OP(=O)(N2CC2)N2CC2)C(F)(F)F)cc1Oc1ccc(OC(F)(F)F)cc1 (stereo not shown) [Compound No. 11] | > 1000 nM | 137 nM | 
O=[N+]([O-])c1ccc(C(OP(=O)(N2CC2)N2CC2)C(F)(F)F)cc1Oc1ccc(F)c(C(F)(F)F)c1 (stereo not shown) [Compound No. 12] | > 1000 nM | 87.3 nM | 
O=[N+]([O-])c1ccc(C(OP(=O)(N2CC2)N2CC2)C(F)(F)F)cc1Oc1cnc2ccccc2c1 (stereo not shown) [Compound No. 13] | > 1000 nM | 42.2 nM | 
O=[N+]([O-])c1ccc(C(OP(=O)(N2CC2)N2CC2)C(F)(F)F)cc1Oc1cccc(-c2ccc(F)cc2)c1 (stereo not shown) [Compound No. 14] | > 1000 nM | 30 nM | 
O=[N+]([O-])c1ccc(C(OP(=O)(N2CC2)N2CC2)C(F)(F)F)cc1Oc1ccc(-c2ccc(F)cc2F)cc1 (stereo not shown) [Compound No. 15] |  | 11.4 nM | > 1000 nM
O=[N+]([O-])c1ccc(C(OP(=O)(N2CC2)N2CC2)C(F)(F)F)cc1Oc1ccc(-c2ccc(F)cc2)c(F)c1 (stereo not shown) [Compound No. 16] | > 1000 nM | 6.78 nM | 
O=[N+]([O-])c1ccc(C(OP(=O)(N2CC2)N2CC2)C(F)(F)F)cc1Oc1ccc(-c2ccc(F)cc2F)c(F)c1 (stereo not shown) [Compound No. 17] | > 1000 nM | 7.26 nM | 
O=[N+]([O-])c1ccc(C(OP(=O)(N2CC2)N2CC2)C(F)(F)F)cc1Oc1ccc(-c2ccc(F)cc2)nc1 (stereo not shown) [Compound No. 18] | > 1000 nM | 35.5 nM | 
O=[N+]([O-])c1ccc(C(OP(=O)(N2CC2)N2CC2)C(F)(F)F)cc1Oc1ccc(-c2ccc(C(F)(F)F)cc2)nc1 (stereo not shown) [Compound No. 19] | > 1000 nM | 313 nM | 
O=[N+]([O-])c1ccc(C(OP(=O)(N2CC2)N2CC2)C(F)(F)F)cc1Oc1ccc(-c2ccc(F)cn2)cc1 (stereo not shown) [Compound No. 20] | > 1000 nM | 46.8 nM | 
O=C(c1cccc(Oc2cc(C(OP(=O)(N3CC3)N3CC3)C(F)(F)F)ccc2[N+](=O)[O-])c1)N1CCCCC1 (stereo not shown) [Compound No. 21] | 176 nM | 6.98 nM | 
O=C(c1cccc(Oc2cc(C(OP(=O)(N3CC3)N3CC3)C(F)(F)F)ccc2[N+](=O)[O-])c1)N1CCC(F)(F)CC1 (stereo not shown) [Compound No. 22] | 139 nM | 1.37 nM | 

Compound | IC50 [1] | IC50 [2] | IC50 ([1]; Homo sapiens, NCI-H460, 2 h)
O=C(c1cccc(Oc2cc(C(OP(=O)(N3CC3)N3CC3)C(F)(F)F)ccc2[N+](=O)[O-])c1)N1CCCC1 (stereo not shown) [Compound No. 23] | 795 nM | 6.04 nM | 
CC1(C)CCN(C(=O)c2cccc(Oc3cc(C(OP(=O)(N4CC4)N4CC4)C(F)(F)F)ccc3[N+](=O)[O-])c2)CC1 (stereo not shown) [Compound No. 24] | > 1000 nM | 4.33 nM | 
O=C(c1cccc(Oc2cc(C(OP(=O)(N3CC3)N3CC3)C(F)(F)F)ccc2[N+](=O)[O-])c1)N1CCC(C(F)(F)F)CC1 (stereo not shown) [Compound No. 25] | 179 nM | 1.86 nM | 
O=C(c1cccc(Oc2cc(C(OP(=O)(N3CC3)N3CC3)C(F)(F)F)ccc2[N+](=O)[O-])c1)N1CCC(O)CC1 (stereo not shown) [Compound No. 26] | 175 nM | 1.2 nM | 
CN(C)C(=O)c1ccc(Oc2cc(C(OP(=O)(N3CC3)N3CC3)C(F)(F)F)ccc2[N+](=O)[O-])cc1 (stereo not shown) [Compound No. 27] | > 1000 nM | 9.32 nM | 
O=C(c1ccc(Oc2cc(C(OP(=O)(N3CC3)N3CC3)C(F)(F)F)ccc2[N+](=O)[O-])cc1)N1CCCCC1 (stereo not shown) [Compound No. 28] | 649 nM | 2.36 nM | 
O=C(c1ccc(Oc2cc(C(OP(=O)(N3CC3)N3CC3)C(F)(F)F)ccc2[N+](=O)[O-])cc1)N1CCC(C(F)(F)F)CC1 (stereo not shown) [Compound No. 29] | > 1000 nM | 60.1 nM | 
O=C(c1ccc(Oc2cc(C(OP(=O)(N3CC3)N3CC3)C(F)(F)F)ccc2[N+](=O)[O-])cc1)N1CCC(c2ccccc2)CC1 (stereo not shown) [Compound No. 30] | > 1000 nM | 79.9 nM | 
CN(C)C(=O)c1ccc(Oc2cc(COc3cc(F)c(COP(=O)(N4CC4)N4CC4)cc3Cl)ccc2[N+](=O)[O-])cc1 [Compound No. 34] | > 1000 nM | 38.5 nM | 
O=C(c1cccc(Oc2cc(COc3c(F)cc(COP(=O)(N4CC4)N4CC4)cc3F)ccc2[N+](=O)[O-])c1)N1CC(F)C1 [Compound No. 36] | 238 nM | < 4.37 nM | 
N#Cc1ccc(Oc2cc(COc3c(F)cc(COP(=O)(N4CC4)N4CC4)cc3F)ccc2[N+](=O)[O-])cc1 [Compound No. 37] | 136 nM | 12.3 nM | 
O=C(c1cccc(Oc2cc(COc3c(F)cc(COP(=O)(N4CC4)N4CC4)cc3F)ccc2[N+](=O)[O-])c1)N1CC(F)(F)C1 [Compound No. 38] | 267 nM | 5.53 nM | 
N#Cc1cccc(Oc2cc(COc3c(F)cc(COP(=O)(N4CC4)N4CC4)cc3F)ccc2[N+](=O)[O-])c1 [Compound No. 39] | 137 nM | 7.79 nM | 
O=[N+]([O-])c1ccc(C(OP(=O)(N2CC2)N2CC2)C(F)(F)F)cc1Oc1ccc2ncccc2c1 (stereo not shown) [Compound No. 40] | > 1000 nM | 14.7 nM | 
CN(C(=O)c1ccc(Oc2cc(C(OP(=O)(N3CC3)N3CC3)C(F)(F)F)ccc2[N+](=O)[O-])cc1)c1ccccc1 (stereo not shown) [Compound No. 41] | 341 nM | 2.54 nM | 
Cc1nc2ccc(Oc3cc(C(OP(=O)(N4CC4)N4CC4)C(F)(F)F)ccc3[N+](=O)[O-])cc2s1 (stereo not shown) [Compound No. 42] | > 1000 nM | 29.3 nM | 
Cn1ncc2cc(Oc3cc(C(OP(=O)(N4CC4)N4CC4)C(F)(F)F)ccc3[N+](=O)[O-])ccc21 (stereo not shown) [Compound No. 43] | 102 nM | 30.4 nM | 
O=[N+]([O-])c1ccc(C(OP(=O)(N2CC2)N2CC2)C(F)(F)F)cc1Oc1ccc(-c2ccccc2)cc1 (stereo not shown) [Compound No. 44] | > 1000 nM | 9.42 nM | 
O=[N+]([O-])c1ccc(C(OP(=O)(N2CC2)N2CC2)C(F)(F)F)cc1Oc1ccc(C2CCCC2)cc1 (stereo not shown) [Compound No. 47] |  | 8.13 nM | 
O=[N+]([O-])c1ccc(C(OP(=O)(N2CC2)N2CC2)C(F)(F)F)cc1Oc1ccc(C2CCCCC2)cc1 (stereo not shown) [Compound No. 48] |  | 3.7 nM | 
O=[N+]([O-])c1ccc(C(OP(=O)(N2CC2)N2CC2)C(F)(F)F)cc1Oc1ccc(C2CCC(F)(F)CC2)cc1 (stereo not shown) [Compound No. 49] | > 1000 nM | 9.61 nM | 
